Vessel count % control data for 59 molecules are collected here from PubChem BioAssay AID732 (Emory University Molecular Libraries Screening Center, 2007).

Where “and” joins values, the source holds several entries; their conditions need not be identical. Identical values can stand only once. Calls of active or inactive are those of the source. How the calls were made is not given here.

For this assay, the system named is in vivo angiogenesis, blood vessel count. The assay is described as follows: reduction of blood vessel formation in vivo – HTS, in vivo study (AID 732).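 Further: zebrafish embryos dosed at one day post fertilization; 0% = reference inhibitor and 100% = plate mean.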 The conditions noted are these: hits give low values;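 tested at 30 µM in the well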.
For the molecule `CCN(CC)C(=O)N[C@@H]1C[C@@H]2c3cccc4[nH]cc(c34)C[C@H]2N(C)C1`, the vessel count % control is 111% (inactive).
With `NC(=O)c1ccccc1`, the vessel count % control was 92% (inactive).
For `CC1CC2C3CCC4=CC(=O)C=C[C@]4(C)[C@@]3(F)[C@@H](O)C[C@]2(C)[C@@]1(O)C(=O)CO` (some centres undefined) the value was 129% (inactive); for `C[C@@H]1O[C@H](C[N+](C)(C)C)CS1`, 89.1% (inactive).
For `CN(C)c1nc(N(C)C)nc(N(C)C)n1` the value was 86% (inactive); for `Cc1nc(N=Nc2ccc(C(=O)O)cc2)c(COP(=O)(O)O)c(C=O)c1O`, 93.9% (inactive).
In the case of `CN(C)CCC(c1ccc(Cl)cc1)c1ccccn1` (centres undefined), the vessel count % control was 128% (inactive).
For `C[C@@H]1O[C@@H](O[C@H]2C[C@@H](O)[C@]3(CO)[C@H]4[C@H](O)C[C@]5(C)[C@@H](C6=CC(=O)OC6)CC[C@]5(O)[C@@H]4CC[C@]3(O)C2)[C@H](O)[C@H](O)[C@H]1O` the value was 109% (inactive); for `N[C@@H](Cc1c[nH]c2ccc(O)cc12)C(=O)O`, 81.8% (inactive); for `O=c1[nH]cc(F)c(=O)[nH]1`, 111% (inactive).
The value for `CCCCNc1ccc(C(=O)OCCN(C)C)cc1` was 100% (inactive); that for `CSc1nc(N)c2ncn([C@@H]3O[C@H](COP(=O)(O)OP(=O)(O)OP(=O)(O)O)[C@H](O)C3O)c2n1` (some centres undefined) was 105% (inactive).
For `Cc1cccc2c(C3=Nc4ccccc4C3=O)c(O)[nH]c12` the value was 26.6%; for `CN1CCN(C2=Nc3cc(Cl)ccc3Nc3ccccc32)CC1`, 98.7% (inactive); for `COc1ccccc1N1CCN(CCCCNS(=O)(=O)c2cccc3c(N(C)C)cccc23)CC1`, 67.5% (inactive).
On to `CC(C)N(CCC(C(N)=O)(c1ccccc1)c1ccccn1)C(C)C` (centres undefined), for which the vessel count % control was 99.1% (inactive) and 109% (inactive).
For `C/C(=C\c1ccc(C(=O)O)cc1)c1ccc2c(c1)C(C)(C)CCC2(C)C` the value was 70% (inactive); for `c1ccc([C@H]2CN3CCSC3=N2)cc1`, 98.4% (inactive); for `CN=c1nc(-c2ccccc2)n(-c2ccccc2)s1`, 125% (inactive).
`Nc1c(S(=O)(=O)O)cc(Nc2ccc(Nc3nc(Cl)nc(Nc4ccc(S(=O)(=O)O)cc4)n3)c(S(=O)(=O)O)c2)c2c1C(=O)c1ccccc1C2=O`: the vessel count % control is 106% (inactive).
For `CC1=C(/C=C/C(C)=C/C=C/C(C)=C/C(=O)O)C(C)(C)CCC1` the value was 70% (inactive); for `Cc1cn([C@H]2C[C@@H](N=[N+]=[N-])[C@@H](CO)O2)c(=O)[nH]c1=O`, 91.6% (inactive).
The value for `CN1CCC23CCCC[C@H]2C1Cc1ccc(O)cc13` (some centres undefined) was 100% (inactive).
For `NC(=O)N1c2ccccc2C=Cc2ccccc21` the value was 96.4% (inactive); for `CS(=N)(=O)CC[C@H](N)C(=O)O` (some centres undefined), 99.4% (inactive); for `CCCCc1ccc(C(=O)O)nc1`, 115% (inactive).
`OC[C@H]1O[C@@H](n2cnc3c(NC4CCCC4)ncnc32)C(O)[C@H]1O` (some centres undefined): the vessel count % control was 94.3% (inactive).
For `O=C(O)/C=C/C(O)c1ccc(Cl)cc1` (centres undefined) the value was 115% (inactive); for `CC(C)OC(=O)C(C)(C)Oc1ccc(C(=O)c2ccc(Cl)cc2)cc1`, 89.2% (inactive).
For `CN(C)C(=O)Oc1ccc[n+](C)c1` the value was 110% (inactive); for `NCCC1CCCC(CCN)N1` (centres undefined), 115% (inactive).
For `CC(=O)C(C)=O` the value was 99.7% (inactive); for `N=c1nc(N2CCCCC2)cc(N)n1O`, 114% (inactive).
Turning to `Cc1ccc(S(=O)(=O)N[C@@H](Cc2ccccc2)C(=O)CCl)cc1`, the vessel count % control is 97.1% (inactive).
The value for `COc1cccc2c1[C@@H]1CN(CCCCn3c(=O)[nH]c4c(sc5ncc(-c6ccccc6)nc54)c3=O)C[C@@H]1CO2` was 87.9% (inactive); that for `C[C@]12C=CC(=O)C=C1CC[C@@H]1C2=CC[C@]2(C)[C@@H](C(=O)CN3CCN(c4cc(N5CCCC5)nc(N5CCCC5)n4)CC3)CC[C@@H]12` was 101% (inactive); that for `CC(C)(C)NCC(O)c1ccc(O)c(CO)c1` (centres undefined) was 122% (inactive) and 102% (inactive).
For `O=C(O)c1cc[c]([Hg][Cl])cc1` the value was 105% (inactive); for `NC(=O)C1=CN(C2OC(COP(=O)(O)OP(=O)(O)OC[C@H]3O[C@@H](n4cnc5c(N)ncnc54)C(OP(=O)(O)O)[C@H]3O)C(O)C2O)C=CC1` (some centres undefined), 101% (inactive).
The value for `O=C1NC(c2cccc([N+](=O)[O-])c2)=CCN1c1ccccc1O` was 91.3% (inactive).
Regarding `O=C(O)CP(=O)(O)O`, the vessel count % control was 79.8% (inactive).
Turning to `CC1=C(C)C(=O)C(CCCCC#CCCCC#CCO)=C(C)C1=O`, the vessel count % control is 88.8% (inactive).
The value for `CC[C@@H]1C(=O)OC[C@@H]1Cc1cncn1C` was 82.3% (inactive) and 90.8% (inactive); that for `CCCCOC(=O)NS(=O)(=O)c1sc(CC(C)C)cc1-c1ccc(Cn2c(CC)nc3c(C)cc(C)nc32)cc1` was 89% (inactive).
The value for `CN(CCOc1ccc(C[C@H](Nc2ccccc2C(=O)c2ccccc2)C(=O)O)cc1)c1ccccn1` was 100% (inactive).
For `O=c1[nH]c(=O)n([C@H]2C[C@H](O)[C@@H](CO)O2)cc1Br` the value was 105% (inactive); for `C=C1C(=O)O[C@@H]2[C@H]3O[C@]3(C)CCC=C(C)CC[C@@H]12`, 92.5% (inactive); for `O=C(OC1CCN(CCCl)CC1)C(c1ccccc1)c1ccccc1`, 102% (inactive).
As to `NC(N)=NOCC[C@H](N)C(=O)O`, the vessel count % control is 94.1% (inactive).
The value for `CC[C@@]1(O)C(=O)OCc2c1cc1n(c2=O)Cc2cc3ccccc3nc2-1` was 0% (inactive).
The value for `CC(C)(C)NCC(O)COc1cccc2[nH]c(=O)[nH]c12` (centres undefined) was 103% (inactive); that for `c1cc(CN2CCCCC2)cc(OCCCNc2nc3ccccc3s2)c1` was 112% (inactive).
For `C[N+]1(C)C2CCC1CC(OC(=O)C(CO)c1ccccc1)C2` (centres undefined) the value was 77.4% (inactive) and 108% (inactive); for `Cc1cccc(C(=O)NCN2CCN(c3ccccc3C#N)CC2)c1`, 110% (inactive); for `O=[N+]([O-])c1ccc(-c2nc(-c3ccc(F)cc3)c(-c3ccncc3)[nH]2)cc1`, 124% (inactive).
`NC(Cc1ccc(N(CCCl)CCCl)cc1)C(=O)O` (centres undefined): the vessel count % control was 123% (inactive).
The value for `O=C(O)c1ccccc1Nc1ccccc1` was 109% (inactive).
The value for `CC1=C(C(=O)O)N2C(=O)[C@@H](NC(=O)C(N)C3=CCC=CC3)[C@H]2SC1` (some centres undefined) was 98.7% (inactive); that for `N#CC(C#N)=Cc1ccc([N+](=O)[O-])c(O)c1` was 88.6% (inactive).
